We go through 19 molecules from patent publication US20150353495A1 (PORTOLA PHARMACEUTICALS, INC., priority 2010, published 2015).

Where a name gives a salt, the structure may show the parent alone.

Experiment [1] addresses T1, JAK2 (Homo sapiens, UniProt O60674).
T1 construct: 5 μl of catalytic domain recombinant Kinase enzyme+Tyr peptide substrate (Invitrogen, CA); purchased Invitrogen
Nature of the experiment: Z'-LYTE kinase assay JAK2. It is filed as biochemical. The essentials:
(§1)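 Catalytic-domain recombinant kinase was incubated with Tyr6 FRET peptide, ATP and compound (1% DMSO final) for 1 h at room temperature. Protease development followed for 1 h, cleaving only non-phosphorylated peptide. Inhibition of phosphorylation was read as coumarin/fluorescein FRET fluorescence.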

The target in experiment [2] is T2, JAK1 (Homo sapiens, UniProt P23458).
T2 construct: 5 μl of catalytic domain recombinant Kinase enzyme+Tyr peptide substrate (Invitrogen, CA); purchased Invitrogen
Nature of the experiment: Z'-LYTE kinase assay JAK1. It is filed as biochemical. The essentials:
as §1

Experiment [3] has as its system JAK1/3 signaling to STAT6 in Ramos B cells. Nature of the experiment: IL4 stimulation of JAK1/3 signaling to STAT6 in Ramos B cells (pSTAT6 Y641, FACS). It is filed as cell-based. The settings on record: Homo sapiens; for inhibition at 0.2 µM: 0.2 uM compound, read-out: IL-4/STAT6 in Ramos Percent Inhibition at 0.2 uM; for inhibition at 1 µM: 1.0 uM compound, read-out: IL-4/STAT6 in Ramos Percent Inhibition at 1.0 uM. The essentials:
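Ramos cells in 10% FCS medium were pre-treated 1 h with compound, stimulated 15 min with 15 ng IL4, fixed in 2% paraformaldehyde and methanol-permeabilized. Intracellular phospho-STAT6 Y641 was stained with PE-conjugated antibody and quantified by flow cytometry.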

Experiment [4] concerns the target T3, JAK3 (Homo sapiens, UniProt P52333).
T3 construct: 5 μl of catalytic domain recombinant Kinase enzyme+Tyr peptide substrate (Invitrogen, CA); purchased Invitrogen
Nature of the experiment: Z'-LYTE kinase assay JAK3. Format: biochemical. In a few lines: as §1

Experiment [5] concerns the target T4, TYK2 (Homo sapiens, UniProt P29597).
T4 construct: 5 μl of catalytic domain recombinant Kinase enzyme+Tyr peptide substrate (Invitrogen, CA); purchased Invitrogen
T4 sequence (P29597 897-1176 limits assumed): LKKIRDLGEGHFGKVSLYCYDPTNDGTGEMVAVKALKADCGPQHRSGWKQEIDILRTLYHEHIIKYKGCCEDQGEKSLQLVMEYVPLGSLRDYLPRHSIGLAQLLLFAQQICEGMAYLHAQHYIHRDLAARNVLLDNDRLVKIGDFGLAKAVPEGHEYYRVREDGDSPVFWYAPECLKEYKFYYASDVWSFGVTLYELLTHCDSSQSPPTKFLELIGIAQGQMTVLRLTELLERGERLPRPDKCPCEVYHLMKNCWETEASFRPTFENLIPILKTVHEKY
Nature of the experiment: Z'-LYTE kinase assay TYK2. It is filed as biochemical. In a few lines:
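Recombinant catalytic-domain TYK2 with Tyr6 peptide in Z′-LYTE FRET format, 1% DMSO final, kinase reaction 1 h at room temperature, then protease development 1 h. Fluorescence read at 445/520 nm (excitation 400 nm), percent phosphorylation vs no-inhibitor control, IC50 from 4-parameter logistic fit.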

T3 sequence (P52333 822-1111 limits assumed): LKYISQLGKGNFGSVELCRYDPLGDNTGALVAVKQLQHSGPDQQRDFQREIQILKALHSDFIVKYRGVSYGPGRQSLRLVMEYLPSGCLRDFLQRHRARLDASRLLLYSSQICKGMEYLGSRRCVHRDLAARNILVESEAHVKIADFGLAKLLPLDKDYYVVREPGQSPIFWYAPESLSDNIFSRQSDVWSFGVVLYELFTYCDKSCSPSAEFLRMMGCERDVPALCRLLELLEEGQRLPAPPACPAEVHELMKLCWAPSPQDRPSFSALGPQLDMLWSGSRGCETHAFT
T1 sequence (O60674 849-1124 limits assumed): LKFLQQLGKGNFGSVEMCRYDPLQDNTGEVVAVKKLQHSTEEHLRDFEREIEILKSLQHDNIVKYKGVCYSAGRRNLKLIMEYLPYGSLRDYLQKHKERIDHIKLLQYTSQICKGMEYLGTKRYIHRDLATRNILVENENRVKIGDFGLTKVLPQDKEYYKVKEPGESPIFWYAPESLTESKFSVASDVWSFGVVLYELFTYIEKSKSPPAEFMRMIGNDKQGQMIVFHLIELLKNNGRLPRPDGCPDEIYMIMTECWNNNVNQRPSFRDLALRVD
T2 sequence (P23458 875-1153 limits assumed): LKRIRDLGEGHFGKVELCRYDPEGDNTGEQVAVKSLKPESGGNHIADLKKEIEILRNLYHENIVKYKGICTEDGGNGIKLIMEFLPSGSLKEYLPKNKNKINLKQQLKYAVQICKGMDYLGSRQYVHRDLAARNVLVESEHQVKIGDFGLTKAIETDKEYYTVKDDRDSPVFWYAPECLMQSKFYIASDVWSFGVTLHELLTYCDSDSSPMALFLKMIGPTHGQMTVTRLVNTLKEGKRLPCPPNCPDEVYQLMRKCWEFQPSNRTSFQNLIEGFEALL

`Cc1ccc(Nc2cc(NCc3ccccc3)c(C(N)=O)cn2)cc1` [Example 10, 4-(benzylamino)-6-(p-tolylamino)nicotinamide]: the IC50 is above 1000 nM in experiment [1], above 1000 nM in experiment [2], 100 to 1000 nM in experiment [4] and above 1000 nM in experiment [5]. For the same molecule, the inhibition at 0.2 µM in experiment [3] came out at 6%. Besides, the inhibition at 1 µM in experiment [3] turned out to be 20%.
For the molecule `NC(=O)c1cnc(Nc2cccc(OCCN3CCCC3)c2)cc1NCc1ccccc1F` [Example 72, 4-(2-fluorobenzylamino)-6-(3-(2-(pyrrolidin-1-yl)ethoxy)phenylamino)nicotinamide], the IC50 in experiment [1] lay in the range of 100 to 1000 nM; in experiment [2] it was 100 to 1000 nM; in experiment [4] it was 1 to 10 nM; in experiment [5], 100 to 1000 nM. Further, the inhibition at 0.2 µM in experiment [3] amounted to 27%. In addition, the inhibition at 1 µM in experiment [3] stood at 54%.
On to `NC(=O)c1cnc(Nc2cccc(OCC(=O)N3CCOCC3)c2)cc1NCc1ccccc1` [Example 430, 4-(benzylamino)-6-(3-(2-morpholino-2-oxoethoxy)phenylamino)nicotinamide], for which the IC50 was in the range of 100 to 1000 nM in experiment [1], 100 to 1000 nM in experiment [2], 1 to 10 nM in experiment [4] and 100 to 1000 nM in experiment [5]. Moreover, the inhibition at 0.2 µM in experiment [3] stood at 15%. Further, in experiment [3], the inhibition at 1 µM amounted to 36%.
Regarding `COCCOc1cccc(Nc2cc(NCc3ccccc3)c(C(N)=O)cn2)c1` [Example 433, -(benzylamino)-6-(3-(2-methoxyethoxyl)phenylamino)nicotinamide], the IC50 was 100 to 1000 nM in experiment [1], 100 to 1000 nM in experiment [2], 10 to 100 nM in experiment [4] and above 1000 nM in experiment [5]. Moreover, in experiment [3], the inhibition at 0.2 µM was 18%. Also, the inhibition at 1 µM in experiment [3] came out at 27%.
`NC(=O)c1cnc(Nc2ccc(C3CCN(C4CCCC4)CC3)cc2)cc1NCc1ccccc1F` [Example 109, 6-(4-(1-cyclopentylpiperidin-4-yl)phenylamino)-4-(2-fluorobenzylamino)nicotinamide]: the IC50 in experiment [1] fell in the range of 100 to 1000 nM; in experiment [2] it was 100 to 1000 nM; in experiment [4], 1 to 10 nM; in experiment [5], 100 to 1000 nM. The inhibition at 0.2 µM in experiment [3] amounted to 23%. Moreover, in experiment [3], the inhibition at 1 µM came out at 60%.
`NC(=O)c1cnc(Nc2cccc(N3CCOCC3)c2)cc1NCc1ccccc1` [Example 31, 4-(benzylamino)-6-(3-morpholinophenylamino)nicotinamide]: the IC50 in experiment [1] lay in the range of 100 to 1000 nM; in experiment [2], 100 to 1000 nM; in experiment [4] it was 1 to 10 nM; in experiment [5], 100 to 1000 nM. For the same molecule, in experiment [3], the inhibition at 0.2 µM amounted to 27%. The inhibition at 1 µM in experiment [3] is 50%.
On to `NC(=O)c1cnc(Nc2ccc(N3CCOCC3)c(Cl)c2)cc1NCc1ccccc1` [Example 251, 4-(benzylamino)-6-(3-chloro-4-morpholinophenylamino)nicotinamide], for which the IC50 in experiment [1] is 100 to 1000 nM; in experiment [2], above 1000 nM; in experiment [4], 10 to 100 nM; in experiment [5], above 1000 nM. Also, the inhibition at 0.2 µM in experiment [3] is 17%. Also, the inhibition at 1 µM in experiment [3] came out at 51%.
In the case of `NC(=O)c1cnc(Nc2cccc(OCCN3CCCC3)c2)cc1NCc1cccnc1` [Example 60, 4-(pyridin-3-ylmethylamino)-6-(3-(2-(pyrrolidin-1-yl)ethoxy)phenylamino)nicotinamide], the IC50 in experiment [1] was 100 to 1000 nM; in experiment [2], 100 to 1000 nM; in experiment [4], 1 to 10 nM; in experiment [5], above 1000 nM. The inhibition at 0.2 µM in experiment [3] worked out at 22%. Besides, in experiment [3], the inhibition at 1 µM was 40%.
Turning to `NC(=O)c1cnc(Nc2ccc(C(=O)N3CCC3)cc2)cc1NCc1ccccc1` [Example 46, 6-(4-(azetidine-1-carbonyl)phenylamino)-4-(benzylamino)nicotinamide], the IC50 in experiment [1] lay in the range of 100 to 1000 nM; in experiment [2], 100 to 1000 nM; in experiment [4], 1 to 10 nM; in experiment [5], 100 to 1000 nM. For the same molecule, in experiment [3], the inhibition at 0.2 µM was found to be 54%. For the same molecule, the inhibition at 1 µM in experiment [3] was 80%.
For the molecule `CC(=O)N1CCN(c2ccc(Nc3cc(NCc4cccnc4)c(C(N)=O)cn3)cc2)CC1` [Example 233], the IC50 in experiment [1] fell in the range of 100 to 1000 nM; in experiment [2], 100 to 1000 nM; in experiment [4], 1 to 10 nM; in experiment [5], 100 to 1000 nM. Also, the inhibition at 0.2 µM in experiment [3] amounted to 17%. Also, the inhibition at 1 µM in experiment [3] was determined as 33%.
Turning to `CNC(=O)[C@H]1CCCN(c2ccc(Nc3cc(NCc4ccccc4)c(C(N)=O)cn3)cc2)C1` [Example 4, (S)-4-(benzylamino)-6-(4-(3-(methylcarbamoyl)piperidin-1-yl)phenylamino)nicotinamide], the IC50 lay in the range of 100 to 1000 nM in experiment [1], 100 to 1000 nM in experiment [2], 1 to 10 nM in experiment [4] and 100 to 1000 nM in experiment [5]. Besides, the inhibition at 0.2 µM in experiment [3] amounted to 32%. In experiment [3], the inhibition at 1 µM turned out to be 68%.
In the case of `CNC(=O)[C@@H]1CCCN(c2ccc(Nc3cc(NCc4ccccc4)c(C(N)=O)cn3)cc2)C1` [Example 6, (R)-4-(benzylamino)-6-(4-(3-(methylcarbamoyl)piperidin-1-yl)phenylamino)nicotinamide], the IC50 in experiment [1] lay within 100 to 1000 nM; in experiment [2], 100 to 1000 nM; in experiment [4], 1 to 10 nM; in experiment [5], 100 to 1000 nM. Also, the inhibition at 0.2 µM in experiment [3] was found to be 39%. For the same molecule, in experiment [3], the inhibition at 1 µM came to 65%.
As to `NC(=O)c1cnc(Nc2ccc(N3CCCCC3)cc2)cc1NCc1ccccc1F` [Example 74, 4-(2-fluorobenzylamino)-6-(4-(piperidin-1-yl)phenylamino)nicotinamide], the IC50 was 100 to 1000 nM in experiment [1], above 1000 nM in experiment [2], 10 to 100 nM in experiment [4] and 100 to 1000 nM in experiment [5]. For the same molecule, in experiment [3], the inhibition at 0.2 µM was 21%. In experiment [3], the inhibition at 1 µM is 43%.
For the molecule `COc1ccc(Nc2cc(NCc3ccccc3)c(C(N)=O)cn2)cc1` [Example 12, 4-(benzylamino)-6-(4-methoxyphenylamino)nicotinamide], the IC50 in experiment [1] was 100 to 1000 nM; in experiment [2], above 1000 nM; in experiment [4], 10 to 100 nM; in experiment [5] it was above 1000 nM. Besides, the inhibition at 0.2 µM in experiment [3] was 15%. The inhibition at 1 µM in experiment [3] amounted to 11%.
Take `NC(=O)c1cnc(Nc2ccc(N3CCCC3=O)c(Cl)c2)cc1NCc1cccc(F)c1` [Example 62, 6-(3-chloro-4-(2-oxopyrrolidin-1-yl)phenylamino)-4-(3-fluorobenzylamino)nicotinamide]: the IC50 in experiment [1] was 100 to 1000 nM; in experiment [2], 100 to 1000 nM; in experiment [4], 10 to 100 nM; in experiment [5] it was above 1000 nM. In addition, in experiment [3], the inhibition at 0.2 µM amounted to 29%. Moreover, the inhibition at 1 µM in experiment [3] stood at 42%.
Turning to `NC(=O)c1cnc(Nc2ccc(N3CCCCC3)cc2)cc1N[C@H](CO)c1ccccc1` [Example 75, (S)-4-(2-hydroxy-1-phenylethylamino)-6-(4-(piperidin-1-yl)phenylamino)nicotinamide], the IC50 in experiment [1] was above 1000 nM; in experiment [2] it was above 1000 nM; in experiment [4], 10 to 100 nM; in experiment [5], above 1000 nM. In addition, the inhibition at 0.2 µM in experiment [3] amounted to 11%. For the same molecule, the inhibition at 1 µM in experiment [3] was determined as 26%.
`C[N+]1(C)CCC(c2ccc(Nc3cc(NCc4cccc(F)c4)c(C(N)=O)cn3)cc2)CC1` [Example 78, 4-(4-(5-carbamoyl-4-(3-fluorobenzylamino)pyridin-2-ylamino)phenyl)-1,1-dimethylpiperidinium formate]: the IC50 was in the range of 10 to 100 nM in experiment [1], 100 to 1000 nM in experiment [2], 1 to 10 nM in experiment [4] and 100 to 1000 nM in experiment [5]. In addition, the inhibition at 1 µM in experiment [3] was determined as 14%.
In the case of `COc1cccc(Nc2cc(NCc3ccccc3)c(C(N)=O)cn2)c1` [Example 11, 4-(benzylamino)-6-(3-methoxyphenylamino)nicotinamide], the IC50 was above 1000 nM in experiment [1], above 1000 nM in experiment [2], 10 to 100 nM in experiment [4] and above 1000 nM in experiment [5]. Moreover, the inhibition at 0.2 µM in experiment [3] is 11%. Moreover, the inhibition at 1 µM in experiment [3] came to 15%.
Regarding `CC(=O)N1CCN(c2ccc(Nc3cc(N[C@H]4CCc5ccccc54)c(C(N)=O)cn3)cc2)CC1` [Example 255, (S)-6-(4-(4-acetylpiperazin-1-yl)phenylamino)-4-(2,3-dihydro-1H-inden-1-ylamino)nicotinamide], the IC50 was 100 to 1000 nM in experiment [1], above 1000 nM in experiment [2], 10 to 100 nM in experiment [4] and 100 to 1000 nM in experiment [5]. Also, the inhibition at 0.2 µM in experiment [3] is 11%. In addition, the inhibition at 1 µM in experiment [3] turned out to be 18%.
